The values that follow come from ChEMBL document CHEMBL1140508, “Novel C2-purine position analogs of nitrobenzylmercaptopurine riboside as human equilibrative nucleoside transporter 1 inhibitors” (Bioorg Med Chem, 2007).

Structures are written as SMILES.

By Ki is commonly meant the dissociation constant of the complex between target and ligand, obtained from inhibition or displacement.

This test addresses T1, Equilibrative nucleoside transporter 1 (Homo sapiens, UniProt Q99808).
T1 sequence (Q99808 whole entry): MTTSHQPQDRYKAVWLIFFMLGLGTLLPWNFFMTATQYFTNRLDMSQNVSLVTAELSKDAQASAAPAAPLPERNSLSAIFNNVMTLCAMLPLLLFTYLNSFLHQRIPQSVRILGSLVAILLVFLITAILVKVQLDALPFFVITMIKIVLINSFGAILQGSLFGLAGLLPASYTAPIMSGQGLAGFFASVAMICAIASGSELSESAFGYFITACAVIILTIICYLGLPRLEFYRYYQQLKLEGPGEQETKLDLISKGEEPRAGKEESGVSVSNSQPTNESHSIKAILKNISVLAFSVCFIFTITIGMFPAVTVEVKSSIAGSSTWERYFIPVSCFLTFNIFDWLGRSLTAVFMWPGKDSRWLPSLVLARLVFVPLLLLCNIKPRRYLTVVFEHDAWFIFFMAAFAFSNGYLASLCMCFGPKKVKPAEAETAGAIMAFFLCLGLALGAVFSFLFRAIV
Kind of test: Displacement of SAENTA-fluorescein from human ENT1 in K562 cells after 45 mins by flow cytometry. Format: cell-based.
Compound `O=[N+]([O-])c1ccc(CSc2nc(F)nc3c2ncn3[C@@H]2O[C@H](CO)[C@@H](O)[C@H]2O)cc1` gave a Ki of 2.1 nM.
As for `CCCNc1nc(SCc2ccc([N+](=O)[O-])cc2)c2ncn([C@@H]3O[C@H](CO)[C@@H](O)[C@H]3O)c2n1`, the figure is 193 nM; as for `CN(C)c1nc(SCc2ccc([N+](=O)[O-])cc2)c2ncn([C@@H]3O[C@H](CO)[C@@H](O)[C@H]3O)c2n1`, 429 nM.
Turning to `O=[N+]([O-])c1ccc(CSc2nc(NC3CCC3)nc3c2ncn3[C@@H]2O[C@H](CO)[C@@H](O)[C@H]2O)cc1`, the affinity, expressed as Ki, was 33 nM.
As for `CCCCCNc1nc(SCc2ccc([N+](=O)[O-])cc2)c2ncn([C@@H]3O[C@H](CO)[C@@H](O)[C@H]3O)c2n1`, the figure is 357 nM; as for `O=[N+]([O-])c1ccc(CSc2nc(NC3CCCCC3)nc3c2ncn3[C@@H]2O[C@H](CO)[C@@H](O)[C@H]2O)cc1`, 400 nM.
As for `O=[N+]([O-])c1ccc(CSc2nc(Cl)nc3c2ncn3[C@@H]2O[C@H](CO)[C@@H](O)[C@H]2O)cc1`, the figure is 11 nM; as for `O=[N+]([O-])c1ccc(CSc2nc(NCCO)nc3c2ncn3[C@@H]2O[C@H](CO)[C@@H](O)[C@H]2O)cc1`, 86 nM.
With `O=[N+]([O-])c1ccc(CSc2nc(N(CCO)CCO)nc3c2ncn3[C@@H]2O[C@H](CO)[C@@H](O)[C@H]2O)cc1`, the affinity corresponds to a Ki of 243 nM.
Take `O=[N+]([O-])c1ccc(CSc2nc(Br)nc3c2ncn3[C@@H]2O[C@H](CO)[C@@H](O)[C@H]2O)cc1`: the Ki turned out to be 11 nM.
As for `CC(=O)Nc1nc(SCc2ccc([N+](=O)[O-])cc2)c2ncn([C@@H]3O[C@H](CO)[C@@H](O)[C@H]3O)c2n1`, the figure is 34 nM.
For `O=C(Nc1nc(SCc2ccc([N+](=O)[O-])cc2)c2ncn([C@@H]3O[C@H](CO)[C@@H](O)[C@H]3O)c2n1)c1ccccc1`, the Ki amounted to 315 nM.
As for `O=[N+]([O-])c1ccc(CSc2nc(NCc3ccccc3)nc3c2ncn3[C@@H]2O[C@H](CO)[C@@H](O)[C@H]2O)cc1`, the figure is 247 nM; as for `CNc1nc(SCc2ccc([N+](=O)[O-])cc2)c2ncn([C@@H]3O[C@H](CO)[C@@H](O)[C@H]3O)c2n1`, 24 nM.
In turn, `O=[N+]([O-])c1ccc(CSc2nc(NC3CC3)nc3c2ncn3[C@@H]2O[C@H](CO)[C@@H](O)[C@H]2O)cc1` showed a Ki of 25 nM.
Then `CCCCNc1nc(SCc2ccc([N+](=O)[O-])cc2)c2ncn([C@@H]3O[C@H](CO)[C@@H](O)[C@H]3O)c2n1`, with 325 nM; and `O=[N+]([O-])c1ccc(CSc2nc(NC3CCCC3)nc3c2ncn3[C@@H]2O[C@H](CO)[C@@H](O)[C@H]2O)cc1`, with 125 nM; and `O=[N+]([O-])c1ccc(CSc2nc(I)nc3c2ncn3[C@@H]2O[C@H](CO)[C@@H](O)[C@H]2O)cc1`, with 11 nM.
As for `CCNc1nc(SCc2ccc([N+](=O)[O-])cc2)c2ncn([C@@H]3O[C@H](CO)[C@@H](O)[C@H]3O)c2n1`, the figure is 24 nM; as for `Nc1nc(SCc2ccc([N+](=O)[O-])cc2)c2ncn([C@@H]3O[C@H](CO)[C@@H](O)[C@H]3O)c2n1`, 1.1 nM.
Then `O=[N+]([O-])c1ccc(CSc2nc(NCCc3ccccc3)nc3c2ncn3[C@@H]2O[C@H](CO)[C@@H](O)[C@H]2O)cc1`, with 394 nM.
